Data from patent publication US20040132697A1, “Treatment of female sexual dysfunction” (Pfizer Inc., priority 2002, published 2004).
Structures can show the parent of a compound that is named as a salt.

Key:
[1] = tested on: anaesthetised rabbit model of female sexual arousal; assay: Anaesthetised rabbit model of female sexual arousal: pelvic nerve stimulated genital blood flow (laser Doppler); type: in vivo; settings: for Potentiation of pelvic nerve stimulated increases in vaginal blood flow (% increase over basal increase): i.v. infusion, n=4
Source text: We have developed an animal model that mimics the physiological arousal response observed during female sexual arousal and directly reflects the clinical data obtained in human volunteers. The model uses Laser Doppler technologies to record small changes in vaginal and clitoral blood flow induced by pelvic nerve stimulation or vasoactive neurotransmitters. During sexual arousal, there is an increase in genital blood flow resulting from increased innervation from the pelvic nerve. The pelvic nerve-stimulated increase in vaginal and clitoral blood flow, observed in the animal model, represents the endogenous vascular effects observed during female sexual arousal. Therefore this model can be used to firstly, identify the mechanisms involved in the regulation of vaginal and clitoral blood flow and secondly, to validate novel approaches for the enhancement of genital blood flow.
(a) The Experimental Details are Described in European patent application EP 1 097 719 A1, Paragraphs [0495]-[0500]
(b) Infusion of Test Compound to Achieve Free Plasma Concentration Equivalent to 0.1 to 100 Times the pA2 α1A and/or α1L Adrenergic Receptors.
To achieve steady state plasma concentrations of the test compound, a loading dose was administered followed by infusion of a steady state dose. The test compound was made up in acidified saline (5% 1M HCl in saline) and details of the infusion protocols are given in the Table below. Test compound and vehicle controls were infused at the same rate. The test compound was infused for 15 minutes prior to pelvic nerve stimulation.
All data are reported as mean±s.e.m. (Standard error of the mean). Significant changes were identified using Student's t-tests (independent).
Compound 1, a potent and selective α1A and/or α1L adrenergic receptor antagonist, enhanced pelvic nerve stimulated (PNS) increases in genital blood flow in the anaesthetised rabbit model of sexual arousal. Repetitive PNS at 15 minute intervals induced reproducible increases in genital blood flow (Open Bar). […] The percentage increase over basal stimulations are showin in table 1 below. […] Data expressed as mean±sem (n=4); all changes were monitored using laser Doppler technologies.

FSAD = settings: Rosen, R. C. et al (1999) J. Sex Marital Therapy 25, 137-144; cited from earlier work

Row | SMILES | Clitoral blood flow ([1]; data not shown) | Cardiovascular effects ([1]; during infusion) | Potentiation of pelvic nerve stimulated increases in vaginal blood flow (% increase over basal increase) ([1]; free plasma concentration 0.1 × pA2 α1A and/or α1L) [%] | Potentiation of pelvic nerve stimulated increases in vaginal blood flow (% increase over basal increase) ([1]; free plasma concentration 1 × pA2 α1A and/or α1L) [%] | Potentiation of pelvic nerve stimulated increases in vaginal blood flow (% increase over basal increase) ([1]; free plasma concentration 10 × pA2 α1A and/or α1L) [%] | Potentiation of pelvic nerve stimulated increases in vaginal blood flow (% increase over basal increase) ([1]; free plasma concentration 100 × pA2 α1A and/or α1L) [%] | Pelvic nerve stimulated (PNS) increases in genital blood flow ([1]; submaximal stimulation (eg 4 Hz), versus time matched or vehicle controls) | Effect on FSAD in small pilot study (FSAD)
1 | COc1cc(C2CC2)c2c(=O)[nH]c(N3CCc4nc(CN5CCOCC5)ccc4C3)nc2c1 [Compound 1, 5-cyclopropyl-7-methoxy-2-(2-(4-morpholinylmethyl)-7,8-dihydro[1,6]naphthyridin-6(5H)-yl)-4(3H)-quinazolinone] | increased | No significant cardiovascular effects | 39 | 102 | 104 | 213 | enhanced | 
2 | Cc1ccc(N(CC2=NCCN2)c2cccc(O)c2)cc1 [Phentolamine mesylate] |  |  |  |  |  |  |  | mild improvements
